Test results: the CheMixHub viscosity set

Assay: xn = mol fraction of the nth substance listed
Settings: 101 kPa

O=CN1CCOCC1 + Brc1ccccc1
viscosity [mPa·s]
Settings	x1 = 0.1046	x1 = 0.2081	x1 = 0.3106	x1 = 0.412	x1 = 0.5124	x1 = 0.6119	x1 = 0.7103	x1 = 0.8078	x1 = 0.9044
303.15 K	1.051	1.188	1.392	1.666	2.029	2.502	3.141	3.952	5.052
308.15 K	1.002	1.119	1.297	1.538	1.858	2.274	2.809	3.511	4.419
313.15 K	0.953	1.057	1.22	1.442	1.727	2.105	2.585	3.211	4.012

C=C(C)C(=O)OCCCC + C1CCCCC1
viscosity [mPa·s]
Settings	298.15 K	308.15 K
x1 = 0.056	0.866	0.737
x1 = 0.1555	0.835	0.711
x1 = 0.2562	0.812	0.692
x1 = 0.3534	0.797	0.68
x1 = 0.4548	0.789	0.673
x1 = 0.4924	0.788	0.673
x1 = 0.5528	0.788	0.673
x1 = 0.6497	0.794	0.678
x1 = 0.7645	0.81	0.692
x1 = 0.8529	0.83	0.708
x1 = 0.9568	0.861	0.735

NCc1ccccc1 + C1CCOC1
303.15 K
Settings	viscosity [mPa·s]
x1 = 0.0768	0.522
x1 = 0.1577	0.576
x1 = 0.2429	0.636
x1 = 0.333	0.705
x1 = 0.4282	0.785
x1 = 0.529	0.876
x1 = 0.636	0.981
x1 = 0.7497	1.104
x1 = 0.8708	1.247

NCc1ccccc1 + C1COCCO1
303.15 K
Settings	viscosity [mPa·s]
x1 = 0.0802	1.116
x1 = 0.164	1.158
x1 = 0.2516	1.199
x1 = 0.3434	1.238
x1 = 0.4396	1.276
x1 = 0.5406	1.311
x1 = 0.6467	1.343
x1 = 0.7584	1.372
x1 = 0.8759	1.396

C=C(C)C(=O)OCCCC + CC#N
viscosity [mPa·s]
Settings	298.15 K	303.15 K	308.15 K	313.15 K	318.15 K
x2 = 0.0681	0.8436	0.7784	0.7223	0.6777	0.6423
x2 = 0.1359	0.8101	0.7487	0.6958	0.6537	0.6202
x2 = 0.1976	0.7793	0.7213	0.6713	0.6314	0.5995
x2 = 0.2728	0.7411	0.6872	0.6407	0.6035	0.5735
x2 = 0.3442	0.7043	0.6543	0.6111	0.5764	0.5483
x2 = 0.4143	0.6677	0.6215	0.5815	0.5492	0.5229
x2 = 0.4658	0.6405	0.5971	0.5594	0.5289	0.5039
x2 = 0.5243	0.6094	0.5691	0.534	0.5055	0.482
x2 = 0.5649	0.5876	0.5495	0.5162	0.4891	0.4665
x2 = 0.639	0.5475	0.5133	0.4834	0.4587	0.4379
x2 = 0.7112	0.508	0.4776	0.4508	0.4285	0.4095
x2 = 0.7836	0.468	0.4413	0.4178	0.3978	0.3805
x2 = 0.8558	0.4277	0.4048	0.3844	0.3668	0.3512
x2 = 0.928	0.3871	0.3679	0.3506	0.3353	0.3214
